Measured values published in publication PMC7867324, “Design, Synthesis and Biological Evaluation of New Pyrimidine Derivatives as Anticancer Agents” (Molecules, 2021).
Structures can show the parent of a compound that is named as a salt. Where two headings read alike, the source gives them in different places.

Key:
[1] = system: tongue squamous cell carcinoma CAL27; assay: In vitro proliferation assay (sulforhodamine B), CAL27; type: cell-based, human
Protocol: (§1) The possible antitumoral activity of these new compounds was analyzed by the effects exerted on the proliferation of five human tumor cell lines of different histotype. Therefore, the modifications on cell viability and replication determined by the treatment with each single compound were evaluated. The following human tumor cell lines triple-negative breast cancer MDA-MB231, colon carcinoma HT-29, glioblastoma multiforme U-87 MG, tongue squamous cell carcinoma CAL27 and pharynx squamous cell carcinoma FaDu were treated for 24 and 48 h with 10, 20, 30, 40, 50 and 60 μM of each single compound.
(§2) Anti-proliferative activities are reported in Table 2 (compounds 1b–g, 3) and Table 3 (compounds 2a–f) in comparison with reference compound 1a.
(§3) The following human tumor cell lines were utilized in the present study: glioblastoma multiforme U-87 MG, triple-negative breast cancer MDA-MB231, colon carcinoma HT-29, tongue squamous cell carcinoma CAL27 and pharynx squamous cell carcinoma FaDu, all of which obtained from the American Type Culture Collection (Manassas, VA, USA). In addition, human dermal fibroblast primary cultures (HF) used as control of non-transformed cells, had been previously established in our laboratory.
(§4) The cells were grown at 37 °C and 5% CO2 in Dulbecco’s modified Eagle’s medium or RPMI 1640 medium supplemented with 10% fetal bovine serum, 2 mM glutamine and 50 U/mL penicillin-streptomycin (Sigma-Aldrich).
(§5) All compounds were solubilized in dimethylsulfoxide (DMSO) (Sigma) for a 10 mM stock solution and utilized to final concentrations from 100 nM to 60 μM for 24 and 48 h. Control cells were treated with equivalent amounts of DMSO in every experiment.
(§6) To determine cytotoxicity, a sulforhodamine B colorimetric assay was performed. Cells (1.5 × 10^4) were plated in a 96-well plate, grown for 24 h and then treated with different concentrations of each compound for 24 and 48 h at 37 °C. Cells were then fixed with 50% trichloroacetic acid for 1 h at 4 °C and stained for 30 min at room temperature with 0.4% sulforhodamine B in 1% acetic acid. Excess dye was removed by washing four times with 1% acetic acid. Protein-bound dye was dissolved in 10 mM Tris (pH 10), and optical density was determined at 510 nm using a microplate reader. Each experiment was performed three times and the media was calculated.

[2] = system: human cancer cells of different histotypes; parameters: method as in PMID 30900116; details: cited from earlier work
[3] = system: pharynx squamous cell carcinoma FaDu; assay: In vitro proliferation assay (sulforhodamine B), FaDu; type: cell-based, human
Protocol: as §1, §2, §3, §4, §5, §6

[4] = system: colon carcinoma HT-29; assay: In vitro proliferation assay (sulforhodamine B), HT-29; type: cell-based, human
Protocol: as §1, §2, §3, §4, §5, §6

[5] = system: triple-negative breast cancer MDA-MB231; assay: In vitro proliferation assay (sulforhodamine B), MDA-MB231; type: cell-based, human
Protocol: as §1, §2, §3, §4, §5, §6

[6] = system: glioblastoma multiforme U-87 MG; assay: In vitro proliferation assay (sulforhodamine B), U-87 MG; type: cell-based, human
Protocol: as §1, §2, §3, §4, §5, §6

[7] = Cytotoxicity on normal cells (sulforhodamine B), HF; type: cell-based, human; details: human, human dermal fibroblast primary cultures (HF), 48 h
Protocol: as §3, §4, §5, §6

[8] = system: five human tumor cell lines (HT-29, U-87 MG, MDA-MB231, CAL27, FaDu); assay: In vitro proliferation assay, summary over all tested tumor cell lines; type: cell-based; details: for EC50: Homo sapiens, all tested tumor cell lines, read-out: EC50s over the tested cell lines
Protocol: as §1, §2, §3, §4, §5, §6

[9] = system: human dermal fibroblasts (HF); assay: Cytotoxicity on normal cells (sulforhodamine B), HF; type: cell-based
Protocol: as §3, §4, §5, §6

[10] = Homo sapiens, CAL-27, 48 h, 48 h
[11] = Homo sapiens, HT-29, 48 h, 48 h
[12] = Homo sapiens, MDA-MB-231, 48 h, 48 h
[13] = Homo sapiens, CAL-27, 24 h, 24 h
[14] = Homo sapiens, HT-29, 24 h, 24 h

SMILES | EC50 [1, 10] [µM] | EC50 ([3]; Homo sapiens, FaDu, 48 h) [µM] | EC50 [4, 11] [µM] | EC50 [5, 12] [µM] | EC50 ([6]; Homo sapiens, U-87 MG, 48 h) [µM] | EC50 ([8]; time not given) [µM] | EC50 [4, 14] [µM] | CC50 at 48 h [7] [µM] | further results
CCN(CC)CCCNc1cc(N)nc(Nc2cccc(Cl)c2)n1 [Compound 1a, N^2-(3-Chlorophenyl)-N^4-(3-(diethylamino)propyl)pyrimidine-2,4,6-triamine] | 54.2 | > 60 | 51.8 | 34.8 | > 60 | – | – | > 60 | effect on cell cycle ([2]; 20 μM): upregulation of p21 and p27 and blockage of the cell cycle at G0/G1; induction of apoptosis ([2]; 30–50 μM): induced apoptosis
CCN(CC)CCCNc1cc(N)nc(Nc2cccc(F)c2)n1 [Compound 1b, N^4-(3-(Diethylamino)propyl)-N^2-(3-fluorophenyl)pyrimidine-2,4,6-triamine] | 20 | 43.4 | 29.8 | 35.7 | 47.3 | – | – | 88 | EC50 ([1]; 48 h): 20.3 µM
CCCN(CCC)c1cc(N)nc(Nc2cccc(Cl)c2)n1 [Compound 1e, N^2-(3-chlorophenyl)-N^4,N^4-dipropylpyrimidine-2,4,6-triamine] | – | – | – | – | – | – | – | – | EC50 ([1]; 48 h): 24.7 µM; EC50 ([3]; 48 h): 29.7 µM; EC50 ([4]; 48 h): 28.5 µM; EC50 ([5]; 48 h): 34.2 µM; EC50 ([6]; 48 h): 45.3 µM; CC50 ([9]; 48 h): 68 µM; cytotoxic activity on normal somatic cells, not cytotoxic up to [9]: > 60 µM; EC50 ([8]; 48 h of treatment): 25 to 45 µM
CCCN(CCC)c1cc(N)nc(Nc2cccc(Cl)c2)n1 [Compound 1e-HCl, N^2-(3-chlorophenyl)-N^4,N^4-dipropylpyrimidine-2,4,6-triamine hydrochloride] | 30.3 | 39.8 | 29.3 | 50.2 | 36.6 | – | – | > 60 | –
CN1CCN(c2cc(N)nc(Nc3cccc(Cl)c3)n2)CC1 [Compound 1g, N^2-(3-Chlorophenyl)-6-(4-methylpiperazin-1-yl)pyrimidine-2,4-diamine] | 60 | 87 | 60 | 55 | > 60 | – | – | – | –
CCN(CC)CCCNc1cc(N)nc(N(Cc2ccc(F)cc2)c2cccc(Cl)c2)n1 [Compound 2a, N^2-(3-chlorophenyl)-N^4-(3-(diethylamino)propyl)-N^2-(4-fluorobenzyl)pyrimidine-2,4,6-triamine] | 4.3 | 8.5 | 5.4 | 7.9 | 7.5 | 4 to 8 | 10.2 | 50.2 | EC50 [1, 13]: 9.7 µM; EC50 ([3]; Homo sapiens, FaDu, 24 h): 26.2 µM; EC50 ([5]; Homo sapiens, MDA-MB-231, 24 h, 24 h): 18 µM; EC50 ([6]; Homo sapiens, U-87 MG, 24 h): 22 µM; negative regulation of growth (cell viability, Figure 3) ([9]; 1, 10, 20, 50 μM, 24 h and 48 h, normal fibroblasts): only weakly significant and exclusively at high concentrations at 48 h; negative regulation of growth (cell viability, Figure 3) ([8]; 1, 10, 20, 50 μM, 24 h and 48 h, each tumor cell line): significant at various concentrations and times; EC50 ([8]; 24 h of treatment): 10 to 26 µM; EC50 ([8]; 48 h of treatment): 5 to 8 µM; fold more active than 1a ([8]; vs hit 1a (RDS 3442), all tested cell lines, 48 h of treatment): 4–13 fold
CCN(CC)CCCNc1cc(N)nc(N(Cc2ccc(F)cc2)c2cccc([N+](=O)[O-])c2)n1 [Compound 2d, N^4-(3-(Diethylamino)propyl)-N^2-(4-fluorobenzyl)-N^2-(3-nitrophenyl)pyrimidine-2,4,6-triamine] | 10.3 | 20.5 | 12.7 | 17.3 | 30.1 | – | 25.2 | 55.2 | –
CCCN(CCC)c1cc(N)nc(N(Cc2ccc(F)cc2)c2cccc(Cl)c2)n1 [Compound 2e, N^2-(3-Chlorophenyl)-N^2-(4-fluorobenzyl)-N^4,N^4-dipropylpyrimidine-2,4,6-triamine] | 59.3 | > 60 | > 60 | > 60 | > 60 | > 60 | – | – | –
CCCN(CCC)c1cc(N)nc(N(Cc2ccc(F)cc2)c2ccc(Cl)cc2F)n1 [Compound 2f, N^2-(4-Chloro-2-fluorophenyl)-N^2-(4-fluorobenzyl)-N^4,N^4-dipropylpyrimidine-2,4,6-triamine] | 45 | > 60 | 30 | 58.3 | > 60 | – | – | – | EC50 ([1]; 48 h): 45.4 µM
COc1cccc(Nc2cc(N)nc(Nc3cccc(OC)c3)n2)c1 [Compound 3, N^2,N^4-bis(3-Methoxyphenyl)pyrimidine-2,4,6-triamine] | 10.4 | – | 11.7 | 10.2 | 22.9 | – | 28.2 | 65 | EC50 [1, 13]: 20.3 µM; EC50 ([3]; Homo sapiens, FaDu, 24 h): 42.1 µM; cytotoxic activity on normal somatic cells, not cytotoxic up to [9]: > 60 µM; EC50 ([8]; 48 h of treatment): ≤ 20 µM

Further molecules by falling EC50 [1, 10], results first:

EC50 [1, 10] [µM] | EC50 ([3]; Homo sapiens, FaDu, 48 h) [µM] | EC50 [4, 11] [µM] | EC50 [5, 12] [µM] | EC50 ([6]; Homo sapiens, U-87 MG, 48 h) [µM] | EC50 ([8]; time not given) [µM] | EC50 [4, 14] [µM] | SMILES | CC50 at 48 h [7] [µM] | further results
57 | 71 | 57 | 70.5 | > 60 | > 60 | – | CCN(CC)CCCNc1cc(N)nc(Nc2cccc(OC)c2)n1 [Compound 1c, N^4-(3-(Diethylamino)propyl)-N^2-(3-methoxyphenyl)pyrimidine-2,4,6-triamine] | – | –
55 | 67 | 50 | 58 | > 60 | 50 to 75 | – | CCCN(CCC)c1cc(N)nc(Nc2ccc(Cl)cc2F)n1 [Compound 1f, N^2-(4-Chloro-2-fluorophenyl)-N^4,N^4-dipropylpyrimidine-2,4,6-triamine] | 98 | –
35.3 | 46.8 | 40.4 | 49.2 | 54.9 | – | – | CCN(CC)CCCNc1cc(N)nc(Nc2cccc([N+](=O)[O-])c2)n1 [Compound 1d, N^4-(3-(Diethylamino)propyl)-N^2-(3-nitrophenyl)pyrimidine-2,4,6-triamine] | 97 | –
14.9 | 18 | 18.3 | 27.2 | 19.8 | 15 to 35 | 34.7 | CCN(CC)CCCNc1cc(N)nc(N(Cc2ccc(F)cc2)c2cccc(OC)c2)n1 [Compound 2c, N^4-(3-(diethylamino)propyl)-N^2-(4-fluorobenzyl)-N^2-(3-methoxyphenyl)-pyrimidine-2,4,6-triamine] | 50.3 | EC50 ([3]; 48 h): 18.2 µM; folds more active than 3 ([3]; FaDu, 48 h of treatment, 2c vs 3): about 2.5 folds
5.1 | 23.8 | 10.4 | 7.3 | 17.7 | – | 20.2 | CCN(CC)CCCNc1cc(N)nc(N(Cc2ccc(F)cc2)c2cccc(F)c2)n1 [Compound 2b, N^4-(3-(diethylamino)propyl)-N^2-(4-fluorobenzyl)-N^2-(3-fluorophenyl)pyrimidine-2,4,6-triamine] | 54.7 | –
